Laboratory results as given in patent US20250236616A1, “IMMUNOMODULATING AZALIDES” (Zoetis Services LLC, priority 2021, published 2025).

Legend:
[1] = system: TNF-α; assay: Whole bovine blood assay, LPS-induced TNF-α; type: cell-based; conditions: Bos taurus, fresh whole bovine blood, LPS stimulant
Procedure, shortened: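 Fresh heparinized bovine whole blood was preincubated with compound 4 h at 37 °C, then stimulated with LPS (final 1 μg/mL) for 18 h at 37 °C. Plasma TNF-α was quantified by MSD U-Plex chemiluminescent immunoassay, normalized to total protein (BCA), and IC50 taken for LPS-induced TNF-α inhibition.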

[2] = system: IL-1β; assay: Whole bovine blood assay, LPS-induced IL-1β (inhibition / overstimulation); type: cell-based; conditions: drug concentration giving overstimulation (OS) of LPS-induced IL-1β
Procedure, shortened: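 Fresh heparinized bovine whole blood was preincubated with compound at varying concentrations for 4 h at 37 °C, then stimulated with 1 μg/mL LPS for 18 h. Plasma IL-1β was measured by MSD chemiluminescent immunoassay and normalized to total protein. Values cover inhibition and concentration-dependent overstimulation.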

[3] = system: P. multocida 46572; assay: In vivo mouse lung infection challenge model (murine efficacy), survival; set-up: species or system CD-1 female mice; conditions: P. multocida 46572 intranasal challenge; 20 mg/kg subcutaneous; harmonized relative to vehicle (−) and M9 (+) controls
Protocol: The challenge organism was P. multocida 46572. Target challenge concentration was 5×10^2 CFU/mouse. Isolated colonies from overnight growth (37° C. with 5% CO2) on trypticase soy agar (TSA II) blood plates were transferred to room temperature Brain Heart Infusion Broth (BHIB). The broth culture was incubated 3.5-4 hours to approximately mid-log phase of growth, as measured by forward light scatter at 600 nm (OD600, 0.200). The culture was centrifuged to collect the bacterial pellet. The pellet was re-suspended in BHIB and adjusted to provide an approximate concentration of 2.7 log 10 colony forming units (CFU) in 0.04 mL at the highest concentration. The challenge inoculum concentration was confirmed by serial dilutions of the inoculum for CFU enumeration. On Day −5, CD −1 female mice were received. Mice were given standard rodent diet and water ad libitum. On Day 0, bacterial inoculum (0.04 mL) was administered to each mouse (n=36) intranasally. Compounds of the invention were dosed at 20 mg/kg (0.1 mL) in a buffered (˜pH 5.4) propylene glycol, monothioglycerol and water solution by subcutaneous injection. Animals were observed from Days 1-10. The study was terminated on Day 10. In addition, some treatment groups were sampled at 6, 24, and 48 hours post bacterial challenge for RNA sequence analysis of lung tissue.
The murine efficacy model (P.multocida challenge) was optimized, and the treatment group size was powered to be able to observe statistically significant improvement of survival to expected ranges for immunomodulatory compounds. The experimental design was a randomized complete block design. Mice were individually identified and treatment groups comingled within a cage, with every treatment group equally represented across cages. Mortality was the primary variable. Mortality data was analyzed using a generalized mixed model with fixed effect of treatment and random effect of block. Survival time was also analyzed using the SAS PHREG (survival analysis) procedure to examine whether there were significant differences between treatment groups and the control group. Numerous compounds of the invention and M9 (positive control) were tested in this model at a dose of 20 mg/kg (Table 3). Typical percent survival for no treatment control is in the range of 0-20% based on study to study variation in challenge inoculum and rate of infection. […] Mouse survival for M9 was about 90-100%, further supporting its residual antibacterial properties against the bacterial strain.

[4] = system: IL-6; assay: Whole bovine blood assay, LPS-induced IL-6; type: cell-based; conditions: Bos taurus, fresh whole bovine blood, LPS stimulant; top drug concentration 250 μM
[5] = Bos taurus, 18 h, top concentration 250 μM
[6] = Bos taurus, 18 h, dose of 500 μM (footnote ^)

Row | SMILES | IC50 ([1]; top drug concentration 250 μM) [µM] | minimal effective concentration [2, 5] [µM] | % Survival [3] [%] | IC50 [4] [µM] | minimal effective concentration ([2]; top concentration 250 μM) [µM] | IC50 ([1]; dose of 500 μM (footnote ^)) [µM] | minimal effective concentration [2, 6] [µM]
1 | CC[C@H]1OC(=O)[C@H](C)[C@@H](O)[C@H](C)[C@@H](O[C@@H]2O[C@H](C)C[C@H](N(C)S(=O)(=O)c3ccccc3)[C@H]2Oc2ccccc2)[C@](C)(O)C[C@@H](C)CN(C)[C@H](C)[C@@H](O)[C@]1(C)O [Example A-3, N-((2S,3R,4S,6R)-2-(((2R,3S,4R,5R,8R,10R,11R,12S,13S,14R)-2-ethyl-3,4, 10,13-tetrahydroxy-3,5,6,8,10, 12,14-heptamethyl-15-oxo-1-oxa-6-azacyclopentadecan-11-yl)oxy)-6-methyl-3-phenoxytetrahydro-2H-pyran-4-yl)-N-methylbenzenesulfonamide] | 23 | 14 | 24 | 43 |  |  | 
2 | CC[C@H]1OC(=O)[C@H](C)[C@@H](O)[C@H](C)[C@@H](O[C@@H]2O[C@H](C)C[C@H](N(C)S(=O)(=O)c3ccccc3)[C@H]2Oc2ccc(OC)c(OC)c2)[C@](C)(O)C[C@@H](C)CN[C@H](C)[C@@H](O)[C@]1(C)O [Example A-8, N-((2S,3R,4S,6R)-3-(3,4-dimethoxyphenoxy)-2-(((2R,3S,4R,5R,8R,10R,11R,12S,13S,14R)-2-ethyl-3,4, 10, 13-tetrahydroxy-3,5,8,10,12,14-hexamethyl-15-oxo-1-oxa-6-azacyclopentadecan-11-yl)oxy)-6-methyltetrahydro-2H-pyran-4-yl)-N-methylbenzenesulfonamide] | 40 | 100 | 20 |  |  |  | 
3 | CCCNC[C@]1(O)[C@H](C)O[C@@H](O[C@H]2[C@H](C)[C@@H](O[C@@H]3O[C@H](C)C[C@H](N(C)S(=O)(=O)N(C)Cc4ccc(Cl)cc4)[C@H]3O)[C@](C)(O)C[C@@H](C)CN[C@H](C)[C@@H](O)[C@](C)(O)[C@@H](CC)OC(=O)[C@@H]2C)C[C@@]1(C)OC [Example B-41] |  |  | 52 |  | 6 |  | 
4 | CCCNC[C@]1(O)[C@H](C)O[C@@H](O[C@H]2[C@H](C)[C@@H](O[C@@H]3O[C@H](C)C[C@H](N(C)S(=O)(=O)Nc4ccccc4)[C@H]3O)[C@](C)(O)C[C@@H](C)CN[C@H](C)[C@@H](O)[C@](C)(O)[C@@H](CC)OC(=O)[C@@H]2C)C[C@@]1(C)OC [Example B-48, (2R,3S,4R,5R,8R,10R,11R,12S,13S, 14R)-2-ethyl-3,4,10-trihydroxy-13-[(2R,4R,5S,6S)-5-hydroxy-4-methoxy-4,6-dimethyl-5-(propylaminomethyl)oxan-2-yl]oxy-11-[(2S,3R,4S,6R)-3-hydroxy-6-methyl-4-[methyl(phenylsulfamoyl)amino]oxan-2-yl]oxy-3,5,8,10,12,14-hexamethyl-15-oxo-1-oxa-6-azacyclopentadecane] |  |  | 33 |  |  | 25 | 32
5 | CCCNC[C@]1(O)[C@H](C)O[C@@H](O[C@H]2[C@H](C)[C@@H](O[C@@H]3O[C@H](C)C[C@H](N(C)S(=O)(=O)c4ccc(Cl)cc4)[C@H]3O)[C@](C)(O)C[C@@H](C)CN[C@H](C)[C@@H](O)[C@](C)(O)[C@@H](CC)OC(=O)[C@@H]2C)C[C@@]1(C)OC [Example B-60, 4-chloro-N-((2S,3R,4S,6R)-2-(((2R,3S,4R,5R,8R,10R,11R, 12S,13S, 14R)-2-ethyl-3,4,10-trihydroxy-13-(((2R,4R,5S,6S)-5-hydroxy-4-methoxy-4,6-dimethyl-5-((propylamino)methyl)tetrahydro-2H-pyran-2-yl)oxy)-3,5,8, 10, 12, 14-hexamethyl-15-oxo-1-oxa-6-azacyclopentadecan-11-yl)oxy)-3-hydroxy-6-methyltetrahydro-2H-pyran-4-yl)-N-methylbenzenesulfonamide] |  |  | 37 |  |  | 5 | 13
6 | CCCNC[C@@]1(O)[C@@H](C)OC(O[C@H]2[C@H](C)[C@@H](O[C@@H]3O[C@H](C)C[C@H](N(C)S(=O)(=O)c4ccccc4)[C@H]3Oc3ccccn3)[C@](C)(O)C[C@@H](C)CN[C@H](C)[C@@H](O)[C@](C)(O)[C@@H](CC)OC(=O)[C@@H]2C)C[C@]1(C)OC (some centres unmarked) [Example B-130] |  |  | 42 |  | 6 |  | 
